ChEMBL document CHEMBL1201862, “PubChem BioAssay data set” (2004)
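Test compounds were applied to cells in 96-well plates for 48 hours at 5 doses. At the GI50, growth is halved.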 Calls of active or inactive are those of the source. Cut-off read from the data, not from the text of the source: active = GI50 up to about 1.1 µM and inactive = higher.

Experiments:
Test in all cases: inhibition of tumour cell growth, NCI panel, 48 h
A549 = test system: A549
EKVX = test system: EKVX
HCC 2998 = test system: HCC 2998
HCT-116 = test system: HCT-116
HOP-62 = test system: HOP-62
IGROV-1 = test system: IGROV-1
K562 = test system: K562
KM12 = test system: KM12
MOLT-4 = test system: MOLT-4
Malme-3M = test system: Malme-3M
NCI-H23 = test system: NCI-H23
RXF 393 = test system: RXF 393
SF-539 = test system: SF-539
SN12C = test system: SN12C
SW-620 = test system: SW-620
NCI-H460 = test system: NCI-H460
SF-268 = test system: SF-268
PC-3 = test system: PC-3

Row | SMILES | GI50 (A549) | GI50 (EKVX) | GI50 (HCC 2998) | GI50 (HCT-116) | GI50 (HOP-62) | GI50 (IGROV-1) | GI50 (K562) | GI50 (KM12) | GI50 (MOLT-4) | GI50 (Malme-3M) | GI50 (NCI-H23) | GI50 (RXF 393) | GI50 (SF-539) | GI50 (SN12C) | GI50 (SW-620) | GI50 (NCI-H460) | GI50 (SF-268) | GI50 (PC-3)
1 | CNS(=O)(=O)NN(C)S(=O)(=O)c1ccc(Br)cc1 | > 100 µM (inactive) | > 100 µM (inactive) | > 100 µM (inactive) | > 100 µM (inactive) | > 100 µM (inactive) | > 100 µM (inactive) | > 100 µM (inactive) | > 100 µM (inactive) | > 100 µM (inactive) | > 100 µM (inactive) | > 100 µM (inactive) | > 100 µM (inactive) | > 100 µM (inactive) | > 100 µM (inactive) | > 100 µM (inactive) | – | – | –
2 | COC(=O)c1c(-c2ccccc2)sc(-c2cccc3ccccc23)c1C(=O)OC | > 100 µM (inactive) | > 100 µM (inactive) | 88.3 µM (inactive) | > 100 µM (inactive) | – | > 100 µM (inactive) | > 100 µM (inactive) | > 100 µM (inactive) | > 100 µM (inactive) | 21.9 µM (inactive) | > 100 µM (inactive) | > 100 µM (inactive) | > 100 µM (inactive) | > 100 µM (inactive) | > 100 µM (inactive) | > 100 µM (inactive) | > 100 µM (inactive) | –
3 | Cc1c(/C=N/NC(=O)c2cc(Br)cc(Br)c2O)c(=O)n(-c2ccccc2)n1C | > 100 µM (inactive) | > 100 µM (inactive) | > 100 µM (inactive) | 56.4 µM (inactive) | 52.7 µM (inactive) | 1.22 µM (inactive) | 51.4 µM (inactive) | 33.8 µM (inactive) | 56.1 µM (inactive) | 67.3 µM (inactive) | 77.3 µM (inactive) | – | 47 µM (inactive) | 69.7 µM (inactive) | 53.7 µM (inactive) | 39.2 µM (inactive) | 83.8 µM (inactive) | –
4 | COC1=CC(=O)C2C(C1=O)[C@@H]1c3ccccc3OC(C)(C)[C@H]21 (some centres undefined) | 70 µM (inactive) | 31.9 µM (inactive) | > 100 µM (inactive) | 16.2 µM (inactive) | > 100 µM (inactive) | > 10 µM (inactive) | 19 µM (inactive) | 68.1 µM (inactive) | 10.1 µM (inactive) | 18.9 µM (inactive) | 17.5 µM (inactive) | 14.1 µM (inactive) | 23.5 µM (inactive) | – | 23.6 µM (inactive) | 60.5 µM (inactive) | 29.6 µM (inactive) | –
5 | O=C(CC1C(=O)Nc2ccccc2S1(=O)=O)Nc1cccc(Cl)c1 (centres undefined) | 20 µM (inactive) | 17.2 µM (inactive) | 18.2 µM (inactive) | 18.2 µM (inactive) | – | 18.9 µM (inactive) | 17.8 µM (inactive) | – | 11.9 µM (inactive) | 23.7 µM (inactive) | 18.9 µM (inactive) | 16.3 µM (inactive) | 10.7 µM (inactive) | 15.7 µM (inactive) | 17.7 µM (inactive) | 16.7 µM (inactive) | 16.2 µM (inactive) | –
6 | NC(CCc1ncc(-c2ccccc2)s1)C(=O)O (centres undefined) | > 100 µM (inactive) | > 100 µM (inactive) | > 100 µM (inactive) | > 100 µM (inactive) | – | > 100 µM (inactive) | > 100 µM (inactive) | > 100 µM (inactive) | > 100 µM (inactive) | > 100 µM (inactive) | > 100 µM (inactive) | > 100 µM (inactive) | > 100 µM (inactive) | > 100 µM (inactive) | > 100 µM (inactive) | > 100 µM (inactive) | – | –
7 | CCC1NCC(=O)c2c1[nH]c1ccccc21 (centres undefined) | > 100 µM (inactive) | > 100 µM (inactive) | > 100 µM (inactive) | > 100 µM (inactive) | – | > 100 µM (inactive) | > 100 µM (inactive) | > 100 µM (inactive) | > 100 µM (inactive) | > 100 µM (inactive) | > 100 µM (inactive) | – | > 100 µM (inactive) | > 100 µM (inactive) | > 100 µM (inactive) | > 100 µM (inactive) | > 100 µM (inactive) | –
8 | CCOC(=O)C1=C(O)C(=O)c2cc(C)ccc2C1=O | 39.4 µM (inactive) | > 100 µM (inactive) | > 100 µM (inactive) | 81.7 µM (inactive) | 63.4 µM (inactive) | > 100 µM (inactive) | > 100 µM (inactive) | > 100 µM (inactive) | > 100 µM (inactive) | 65.3 µM (inactive) | 27.2 µM (inactive) | > 100 µM (inactive) | > 100 µM (inactive) | > 100 µM (inactive) | > 100 µM (inactive) | > 100 µM (inactive) | > 100 µM (inactive) | –
9 | Cc1c(C(=O)CSc2nc3cc([N+](=O)[O-])ccc3[nH]2)c(=O)n(-c2ccccc2)n1C | > 100 µM (inactive) | – | 36.6 µM (inactive) | > 100 µM (inactive) | > 100 µM (inactive) | > 100 µM (inactive) | – | > 100 µM (inactive) | > 100 µM (inactive) | 49.7 µM (inactive) | > 100 µM (inactive) | – | > 100 µM (inactive) | > 100 µM (inactive) | > 100 µM (inactive) | > 100 µM (inactive) | > 100 µM (inactive) | –
10 | CCOP(=O)(OCC)/C(C#N)=C\c1ccc(OC(C)=O)cc1 | > 100 µM (inactive) | > 100 µM (inactive) | > 100 µM (inactive) | > 100 µM (inactive) | > 100 µM (inactive) | > 100 µM (inactive) | > 100 µM (inactive) | > 100 µM (inactive) | > 100 µM (inactive) | > 100 µM (inactive) | > 100 µM (inactive) | > 100 µM (inactive) | > 100 µM (inactive) | > 100 µM (inactive) | > 100 µM (inactive) | > 100 µM (inactive) | > 66.2 µM (inactive) | –
11 | Cc1cc2c(=O)c3ccc(Cl)cc3[nH]c2c(C(N)=O)c1C | > 100 µM (inactive) | > 100 µM (inactive) | > 100 µM (inactive) | > 100 µM (inactive) | > 100 µM (inactive) | > 100 µM (inactive) | 83.2 µM (inactive) | > 100 µM (inactive) | > 100 µM (inactive) | > 100 µM (inactive) | > 100 µM (inactive) | – | > 100 µM (inactive) | > 100 µM (inactive) | > 100 µM (inactive) | > 100 µM (inactive) | > 100 µM (inactive) | –
12 | CC1OC(OC2CCCc3c(O)c4c(c(O)c32)C(=O)c2ccccc2C4=O)CC(N)C1O (centres undefined) | 1.62 µM (inactive) | 1.71 µM (inactive) | 2.07 µM (inactive) | 1.72 µM (inactive) | 1.57 µM (inactive) | 1.69 µM (inactive) | 1.01 µM (active) | 1.58 µM (inactive) | 0.652 µM (active) | 1.82 µM (inactive) | 1.77 µM (inactive) | 1.02 µM (active) | 1.56 µM (inactive) | 1.68 µM (inactive) | 1.33 µM (inactive) | 1.43 µM (inactive) | 1.69 µM (inactive) | –
13 | CCCN1CN(C(C(=O)N[C@@H]2C(=O)N3C2SC(C)(C)C3C(=O)O)c2ccccc2)CSC1=S (some centres undefined) | > 100 µM (inactive) | > 100 µM (inactive) | – | 57.1 µM (inactive) | > 100 µM (inactive) | > 100 µM (inactive) | 41.6 µM (inactive) | > 100 µM (inactive) | > 100 µM (inactive) | > 100 µM (inactive) | > 100 µM (inactive) | – | > 100 µM (inactive) | > 100 µM (inactive) | 16.4 µM (inactive) | > 100 µM (inactive) | > 100 µM (inactive) | –
14 | O=C(Nc1ccc(F)cc1)c1cc2ccc(O)cc2o/c1=N\c1cccc(F)c1 | – | 22.9 µM (inactive) | 55.6 µM (inactive) | 35.4 µM (inactive) | 42.5 µM (inactive) | 18.9 µM (inactive) | 22 µM (inactive) | 29.9 µM (inactive) | 27.9 µM (inactive) | 20.2 µM (inactive) | 19.9 µM (inactive) | – | 52.7 µM (inactive) | 38.9 µM (inactive) | 41.5 µM (inactive) | 31.7 µM (inactive) | 43.1 µM (inactive) | 33 µM (inactive)
15 | NC(CCSC(F)F)C(=O)O (centres undefined) | > 100 µM (inactive) | > 100 µM (inactive) | > 100 µM (inactive) | > 100 µM (inactive) | > 100 µM (inactive) | > 100 µM (inactive) | > 100 µM (inactive) | > 100 µM (inactive) | > 100 µM (inactive) | > 100 µM (inactive) | > 100 µM (inactive) | > 100 µM (inactive) | > 100 µM (inactive) | > 100 µM (inactive) | > 100 µM (inactive) | > 100 µM (inactive) | > 100 µM (inactive) | –
16 | CCOC(=O)N[C@@H]1C(CC(=O)OC)O[C@H]2OC(C)(C)O[C@H]21 (some centres undefined) | > 100 µM (inactive) | – | > 100 µM (inactive) | – | > 100 µM (inactive) | > 100 µM (inactive) | > 100 µM (inactive) | > 100 µM (inactive) | > 100 µM (inactive) | > 100 µM (inactive) | > 100 µM (inactive) | > 100 µM (inactive) | > 100 µM (inactive) | > 100 µM (inactive) | > 100 µM (inactive) | > 100 µM (inactive) | > 100 µM (inactive) | –
17 | COc1ccc2cc3[n+](cc2c1O)CCc1cc2c(cc1-3)OCO2 [BERBERRUBINE CHLORIDE] | 96.6 µM (inactive) | > 100 µM (inactive) | > 100 µM (inactive) | 83 µM (inactive) | > 100 µM (inactive) | > 100 µM (inactive) | > 100 µM (inactive) | > 100 µM (inactive) | 52.8 µM (inactive) | > 100 µM (inactive) | 70 µM (inactive) | > 100 µM (inactive) | > 100 µM (inactive) | > 100 µM (inactive) | 92.9 µM (inactive) | 54 µM (inactive) | > 100 µM (inactive) | –
